Laboratory results published in ChEMBL document CHEMBL1121517, “Estrogen receptor based imaging agents. 1. Synthesis and receptor binding affinity of some aromatic and D-ring halogenated estrogens” (J Med Chem, 1980).

Biological target: Estrogen receptor (Ovis aries) (UniProt P49885+Q9TU15)

Row | SMILES | RAC
1 | C[C@]12CC[C@@H]3c4cc(I)c(O)cc4CC[C@H]3[C@@H]1CC[C@@H]2O | < 0.1
2 | CCC(c1ccc(O)cc1)C(CC)c1ccc(O)c(Br)c1 (stereo not drawn) | 16
3 | C[C@]12CC[C@@H]3c4ccc(O)cc4CC[C@H]3[C@@H]1C[C@@H](Cl)[C@H]2O | 9.2
4 | C[C@]12CC[C@@H]3c4ccc(O)cc4CC[C@H]3[C@@H]1C[C@H](Br)[C@@H]2O | 4.7
5 | C[C@]12CC[C@@H]3c4ccc(O)c(F)c4CC[C@H]3[C@@H]1CC[C@@H]2O | 128
6 | CCC(c1ccc(O)c(I)c1)C(CC)c1cc(I)c(O)c(I)c1 (stereo not drawn) | 0.14
7 | C[C@]12CC[C@@H]3c4ccc(O)cc4CC[C@H]3[C@@H]1C[C@H](I)[C@@H]2O | 57
8 | C[C@]12CC[C@@H]3c4ccc(O)cc4CC[C@H]3[C@@H]1C[C@@H](Cl)[C@@H]2O | 100
9 | CCC(c1cc(Br)c(O)c(Br)c1)C(CC)c1cc(Br)c(O)c(Br)c1 (stereo not drawn) | < 0.17
10 | CCC(c1ccc(O)c(Br)c1)C(CC)c1cc(Br)c(O)c(Br)c1 (stereo not drawn) | 0.72
11 | COc1ccc2c(c1)CC[C@@H]1[C@@H]2CC[C@]2(C)C(=O)[C@@H](Br)C[C@@H]12 | 0.14
12 | CCC(c1ccc(O)cc1)C(CC)c1ccc(O)c(I)c1 (stereo not drawn) | 14
13 | CCC(c1ccc(O)cc1)C(CC)c1cc(I)c(O)c(I)c1 (stereo not drawn) | 1.9
14 | C[C@]12CC[C@@H]3c4ccc(O)c(Br)c4CC[C@H]3[C@@H]1CC[C@@H]2O | 10
15 | COc1ccc2c(c1)CC[C@@H]1[C@@H]2CC[C@]2(C)C(=O)[C@H](Br)C[C@@H]12 | 3.5
16 | CCC(c1cc(I)c(O)c(I)c1)C(CC)c1cc(I)c(O)c(I)c1 (stereo not drawn) | 0.002
17 | CCC(c1ccc(O)cc1)C(CC)c1ccc(O)c(F)c1 (stereo not drawn) | 205
18 | CCC(c1ccc(O)c(F)c1)C(CC)c1ccc(O)c(F)c1 (stereo not drawn) | 64
19 | C[C@]12CC[C@@H]3c4ccc(O)cc4CC[C@H]3[C@@H]1C[C@@H](I)[C@@H]2O | 100
20 | CC[C@H](c1ccc(O)cc1)[C@@H](CC)c1ccc(O)cc1 | 300
21 | C[C@]12CC[C@@H]3c4ccc(O)cc4CC[C@H]3[C@@H]1C[C@@H](Br)[C@@H]2O | 127
22 | C[C@]12CC[C@@H]3c4cc(F)c(O)cc4CC[C@H]3[C@@H]1CC[C@@H]2O | 86
23 | COc1ccc2c(c1)CC[C@@H]1[C@@H]2CC[C@]2(C)C(=O)[C@H](Cl)C[C@@H]12 | 0.48
24 | C[C@]12CC[C@@H]3c4cc(Br)c(O)cc4CC[C@H]3[C@@H]1CC[C@@H]2O | 1.2
25 | COc1ccc2c(c1)CC[C@@H]1[C@@H]2CC[C@]2(C)C(=O)CC[C@@H]12 | 12
26 | CCC(c1ccc(O)c(I)c1)C(CC)c1ccc(O)c(I)c1 (stereo not drawn) | 3.2
27 | CCC(c1ccc(O)c(Br)c1)C(CC)c1ccc(O)c(Br)c1 (stereo not drawn) | 2.6
28 | C[C@]12CC[C@@H]3c4ccc(O)cc4CC[C@H]3[C@@H]1C[C@@H](Br)[C@H]2O | 4.8
